Experimental data: patent US20240358829A1, “Lymphocyte Population and Methods for Producing Same” (AVM Biotechnology, LLC, priority 2021, published 2024)

Legend:
[1] = test system: peripheral blood mononuclear cells or single cell splenocytes; assay: In vitro apoptosis of mononuclear cells or splenocytes incubated with AVM0703; assay type: cell-based, mouse; details: concentrations equivalent to in vivo peak blood concentrations of acute high dose, out to 72 hours
A20 B cell lymphoma = test system: A20 B cell lymphoma
Experimental: FIG. 10B. […] Mice were inoculated with A20 lymphoma 2×10^6 cells in 100 μL of PBS mixed with 100 μL of chilled Matrigel into their flank. Three, 24 and 48 hours later mice were euthanized and tumors, blood, bone marrow and thymus were taken and made into single cell suspensions for flow cytometry detection of live A20 cells.

[2] = Compassionate use patients treated with AVM0703; assay type: in vivo, human

SMILES: C[C@@H]1C[C@H]2[C@@H]3CCC4=CC(=O)C=C[C@]4(C)[C@@]3(F)[C@@H](O)C[C@]2(C)[C@@]1(O)C(=O)COP(=O)(O)O [AVM0703, dexamethasone sodium phosphate]
- apoptosis [1]: no apoptosis was observed
- time of maximal ablation of A20 lymphoma implanted in the flank (A20 B cell lymphoma; 18 mg/kg HED): ~3 h
- Presence of AVM-NKT cells, 48 hrs blood (A20 B cell lymphoma; A20 model): negative
- growth of the A20 B cell lymphoma (A20 B cell lymphoma; HED 18.1 mg/kg PO, repeat dosing, vs placebo): significantly delays growth
- location of AVM-NKT cells (A20 B cell lymphoma; male tumor bearing Balb/c mice): in tumors
- tumor necrosis (A20 B cell lymphoma; study A20-3, dose response curve, 18&26 mg/kg, doses on days 10, 17, 25, 32, 39): 18&26 mg/kg 50-80% necrotic
- time to immune infiltrate (skin turning red over the tumor area) ([2]; compassionate use patient with CNS squamous cell carcinoma, after starting an 18 mg/kg infusion): ≤ 30 min
- neutrophil production ([2]; compassionate use patient without neutrophils for 6 years): began making healthy active neutrophils
